This note sets out measurements from ChEMBL document CHEMBL3758093, “Sulfonamide inhibition studies of the β-carbonic anhydrase from the pathogenic bacterium Vibrio cholerae” (Bioorg Med Chem, 2016).

This assay addresses Carbonic anhydrase 1 (Homo sapiens, UniProt P00915).

Carbonic anhydrase 1, sequence (P00915 whole entry): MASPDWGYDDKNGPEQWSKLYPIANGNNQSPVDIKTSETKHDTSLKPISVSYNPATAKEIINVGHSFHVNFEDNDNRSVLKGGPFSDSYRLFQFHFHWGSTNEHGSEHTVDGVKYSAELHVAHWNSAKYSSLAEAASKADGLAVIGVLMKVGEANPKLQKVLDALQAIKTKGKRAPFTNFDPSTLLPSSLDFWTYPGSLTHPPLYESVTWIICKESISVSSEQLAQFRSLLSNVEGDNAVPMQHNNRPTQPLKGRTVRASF

As usually defined, the Ki is the equilibrium dissociation constant of an inhibitor or competing ligand from its target. In the case of `NS(=O)(=O)c1cccc(S(N)(=O)=O)c1`, the Ki was 28 µM. In other words, the double-digit micromolar range.
